Results: patent US20120053119A1, “THERAPEUTIC METHOD FOR INCREASING PANCREATIC BETA CELL MASS” (priority 2009, published 2012)

What was measured:
Wnt target genes = assay: Wnt signaling pathway-focused microarray (SuperArray) of INS-1 cells treated with SDF-1; type: cell-based; settings: 4 hrs
Procedure: FIG. 8. Wnt signaling focused array analysis. INS-1 cells were stimulated by SDF-1 (10 nM) for 4 hr. Total RNA was isolated and biotin-labeled complementary RNAs were generated. The Wnt signaling pathway-focused microarray filters (SuperArray Bioscience) were hybridzed with these biotin-labeled targets at 60 degree overnight. The filters were washed and subsequently incubated with alkaline phosphatase-conjugated streptavidin and CDP-substrate. The chemiluminescent images were captured. For quantification, the spot intensity was measured and normalized to the value of the housekeeping gene GADPH. Shown is a representative image of the focused array.
Gene expression profiling on focused microarrays INS-1 cells were untreated or treated with 10 nM SDF-1 for 4 hrs. Total RNA was isolated and Biotin-labeled complimentary RNAs were generated using the TrueLabeling-AMP Linear RNA Amplification Kit (SuperArray Bioscience Corp.) The Wnt-signaling pathway-focused microarray filters (118 probes) (SuperArray Bioscience Corp.) were hybridized with these biotin-labeled targets (5 microg/array at 60 C overnight. The filters were washed and subsequently incubated with alkaline phosphatase-conjugated streptavidin and CDPStar substrate. The Chemiluminescent images were captured using Kodak Digital Station 440 (Perkin Elmer). For quantification, the spot intensity was measured and normalized to the value of the housekeeping gene GAPDH. Fold-changes in gene expression levels were determined by comparisons of hybridization densities of SDF-1 treated versus untreated INS-1 cells. Real time RT-PCR was carried out by using the SYBR® Green QPCR kit (Stratagene). Briefly, INS-1 cells were treated with 10 nM SDF-1 or PBS vehicle control for 4 h. Total RNA was reverse-transcribed to cDNA using Super-Script II reverse transcriptase (Invitrogen). Real-time PCR was performed to amplify cyclin D1 and beta-catenin.
The expression of transcripts in INS-1 cells in response to SDF-1 (10 nM, 4 hrs) was determined on focused arrays of genes expressed in the Wnt signaling pathway. […] This finding is consistent with the down-regulation of genes expressing components of the beta-catenin destruction box involved in the degradation of beta-catenin that occurs in the absence of active Wnt signaling; for example, axin, glycogen synthase kinase-3 (Gsk3) and casein kinase 1 (Csnk1). These findings are consistent with the mechanism of Wnt/Fz-induced signaling involving Galphai/o activation of disheveled (Dv1) and the inhibition of the destruction box enzymes GSK3 and Csnk1 that destabilize and degrade betacatenin.

Wnt signaling = Wnt signaling luciferase reporter assay (TOPflash/FOPflash) in INS-1 cells; type: cell-based; settings: dose response
Procedure: Wnt signaling is indicated by the value of TOPflash luciferase activity divided by FOPflash activity. A. Time course of the TOPflash:FOPflash ratio of INS-1 cell treated with 1 nM SDF-1. B. Ratio of TOPflash to FOPflash activity in INS-1 cells treated with increasing doses of SDF-1. C. […] All values are relative to the value of the untreated INS-1 cells. Data are normalized for transfection efficiency by co-transfected beta-galactosidase and represent means±S.D. of three experiments.
All values are relative to the first (leftmost) bar. Statistical significance is depicted as * (p<0.05) when compared with control values (leftmost bar). Data are normalized for transfection efficiency by co-transfected beta-galactosidase and represent means±S.D. of three experiments.
Wnt Signaling Luciferase Reporter Assay (TOPflash) INS-1 cells were plated into 24-well dishes 24 hr before transfection with TOPflash or the mutant, control reporter, FOPflash (1 microg/well) using LipofectAMINE2000 (Invitrogen). Various concentrations of SDF-1 or AMD3100 were then added to the culture medium 24 h following transfection for the indicated period of time. In studies in which inhibitors were used, LY294002 (50 microM), PD98059 (10 microM) or SH-5 (10 nM) were added concomitantly with SDF-1. In studies in which wild-type (wt), dominant-negative (dn) or contitutively-active (ca) forms of kinase were used, dnTCF7L2, dnGSK3beta, caGSK3beta, dnAkt, or caAkt (0.5 microg/well) was cotransfected with TOPflash. Luciferase activity in transfected cells was determined with a luciferase assay kit (Promega).
We examined SDF-1 induction of Wnt signaling using a Wnt signaling reporter assay (TOPflash/FOPflash). The TOPflash and FOPflash constructs contain the luciferase reporter either under the control of consensus TCF7L2-binding sites or mutated TCF7L2-binding sites, respectively. Luciferase activity was measured during 4 hr after addition of 1 nM SDF-1 (FIG. 3A).

Question: How did the “mRNA fold change by SDF-1” value (Wnt target genes; gene Axin1, SDF-1 10 nM) turn out when “SDF-1: small, secreted 70 amino acid peptide chemokine, SEQ ID NO: 1, ligand of CXCR4” was run?
Answer: −2.58 fold

Question: What about the “mRNA fold change by SDF-1” value (Wnt target genes; gene Ccnd1 (Cyclin D1), SDF-1 10 nM) of the same substance?
Answer: 1.48 fold

Question: What about the “mRNA fold change by SDF-1” value (Wnt target genes; gene Ccnd2 (Cyclin D2), SDF-1 10 nM) of the same substance?
Answer: −2.29 fold

Question: What about the “mRNA fold change by SDF-1” value (Wnt target genes; gene Csnk2a1 (Casein kinase II, Alpha1), SDF-1 10 nM) of the same substance?
Answer: −1.42 fold

Question: And the “mRNA fold change by SDF-1” value (Wnt target genes; gene Csnk2b (Casein kinase 2, beta subunit), SDF-1 10 nM)?
Answer: −3.03 fold

Question: And the “mRNA fold change by SDF-1” value (Wnt target genes; gene Ctbp1 (C-terminal binding protein 1), SDF-1 10 nM)?
Answer: −2.32 fold

Question: What about the “mRNA fold change by SDF-1” value (Wnt target genes; gene Ctnnb1 (Catenin (cadherin associated protein), beta 1), SDF-1 10 nM) of the same substance?
Answer: 1.99 fold

Question: And the “mRNA fold change by SDF-1” value (Wnt target genes; gene Cxxc4 (CXXC finger 4), SDF-1 10 nM)?
Answer: −1.43 fold

Question: And the “mRNA fold change by SDF-1” value (Wnt target genes; gene Dvl1 (Dishevelled, dsh homolog 1), SDF-1 10 nM)?
Answer: −1.92 fold

Question: What about the “mRNA fold change by SDF-1” value (Wnt target genes; gene Fosl1 (Fos-like antigen 1), SDF-1 10 nM) of the same substance?
Answer: 1.72 fold

Question: And the “mRNA fold change by SDF-1” value (Wnt target genes; gene Foxn1 (Forkhead box N1), SDF-1 10 nM)?
Answer: 1.66 fold

Question: What about the “mRNA fold change by SDF-1” value (Wnt target genes; gene Fshb (Follicle stimulating hormone beta), SDF-1 10 nM) of the same substance?
Answer: 1.69 fold

Question: What about the “mRNA fold change by SDF-1” value (Wnt target genes; gene Fzd2 (Frizzled homolog 2), SDF-1 10 nM) of the same substance?
Answer: 1.43 fold

Question: What about the “mRNA fold change by SDF-1” value (Wnt target genes; gene Gsk3a (Glycogen synthase kinase 3 alpha), SDF-1 10 nM) of the same substance?
Answer: −1.67 fold

Question: What about the “mRNA fold change by SDF-1” value (Wnt target genes; gene Gsk3b (Glycogen synthase kinase 3 beta), SDF-1 10 nM) of the same substance?
Answer: −1.51 fold

Question: What about the “mRNA fold change by SDF-1” value (Wnt target genes; gene Lrp5_predicted (Low density lipoprotein receptor-related protein 5), SDF-1 10 nM) of the same substance?
Answer: 1.72 fold

Question: What about the “mRNA fold change by SDF-1” value (Wnt target genes; gene Myc, SDF-1 10 nM) of the same substance?
Answer: −2.55 fold

Question: What about the “mRNA fold change by SDF-1” value (Wnt target genes; gene Ppp2cb (Protein phosphatase 2, catalytic subunit, beta isoform), SDF-1 10 nM) of the same substance?
Answer: −2.12 fold

Question: And the “mRNA fold change by SDF-1” value (Wnt target genes; gene Ppp2r1b (Protein phosphatase 2, regulatory subunit A (PR 65), beta isoform), SDF-1 10 nM)?
Answer: −1.71 fold

Question: What about the “mRNA fold change by SDF-1” value (Wnt target genes; gene Rhoa (Ras homolog gene family, member A), SDF-1 10 nM) of the same substance?
Answer: −1.32 fold

Question: What about the “mRNA fold change by SDF-1” value (Wnt target genes; gene Slc9a3r1 (Solute carrier family 9, isoform 3 regulator 1), SDF-1 10 nM) of the same substance?
Answer: 1.43 fold

Question: And the “mRNA fold change by SDF-1” value (Wnt target genes; gene Tcfe2a (Transcription factor E2a), SDF-1 10 nM)?
Answer: 1.61 fold

Question: What about the “mRNA fold change by SDF-1” value (Wnt target genes; gene Wif1 (Wnt inhibitory factor 1), SDF-1 10 nM) of the same substance?
Answer: −1.92 fold

Question: What about the “mRNA fold change by SDF-1” value (Wnt target genes; gene Wnt7b (Wingless-related MMTV integration site 7B), SDF-1 10 nM) of the same substance?
Answer: 1.59 fold

Question: And the “SDF-1 concentration giving maximum Wnt signaling response (TOPflash/FOPflash)” value (Wnt signaling)?
Answer: 0.4 nM
